Reference: PubChem BioAssay (NCI)
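All cell lines were grown in 96-well plates and treated with compound for 48 hours. Definition used: TGI = concentration required for complete inhibition of growth.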

How the values were obtained:
Test in all cases: NCI-60 cell line screen, 48 h
MDA-MB-231 breast = tested on: MDA-MB-231 breast
LOX IMVI melanoma = tested on: LOX IMVI melanoma
SNB-75 CNS = tested on: SNB-75 CNS
M14 melanoma = tested on: M14 melanoma
HOP-92 NSCLC = tested on: HOP-92 NSCLC
SN12C renal = tested on: SN12C renal
NCI-H522 lung = tested on: NCI-H522 lung
OVCAR-5 ovarian = tested on: OVCAR-5 ovarian
786-0 renal = tested on: 786-0 renal
UACC-257 melanoma = tested on: UACC-257 melanoma

Row | SMILES | TGI (MDA-MB-231 breast) [µM] | TGI (LOX IMVI melanoma) [µM] | TGI (SNB-75 CNS) [µM] | TGI (M14 melanoma) [µM] | TGI (HOP-92 NSCLC) [µM] | TGI (SN12C renal) [µM] | TGI (NCI-H522 lung) [µM] | TGI (OVCAR-5 ovarian) [µM] | TGI (786-0 renal) [µM] | TGI (UACC-257 melanoma) [µM]
1 | COC(=O)[C@H](Cc1c[nH]c2ccccc12)NC(=O)c1ccccc1I | > 100 | 44.8 | 32.4 | 32.4 | 35.2 | > 100 | 30.9 | > 100 | 34.6 | 35.1
2 | NC(N)=N/N=C/c1c(-c2cc([N+](=O)[O-])c(Cl)cc2Cl)nc2n1CCS2 | > 100 | > 100 | – | > 100 | 61.6 | > 100 | 51.5 | > 100 | > 100 | 54.2
3 | N#Cc1c(-c2ccccc2)cc(Nc2ccc(Cl)cc2)n2c1nc1ccccc12 | > 47.4 | > 100 | > 31.1 | > 100 | 4.63 | > 32.2 | 11.6 | > 50.9 | > 39.7 | > 28.8
4 | Nc1c2cc3ccc2nc2ccc(cc12)OCCOCCOCCOCCOCCOCCO3 | > 10 | > 10 | > 10 | > 10 | > 10 | > 10 | > 10 | > 10 | > 10 | > 10
5 | C/C(O[Si](C(C)C)(C(C)C)C(C)C)=C(\C)C(=O)N(C)c1ccccc1Cl | > 100 | > 100 | > 100 | > 100 | > 100 | > 100 | > 100 | > 100 | > 100 | > 100
6 | Cc1cn(C2OC(CO)C(O)C2F)c(=O)[nH]c1=O (centres undefined) | > 100 | > 100 | > 100 | > 100 | > 100 | > 100 | > 100 | > 100 | > 100 | > 100
7 | COc1ccc(C2C3=C(COC3=O)OC(C)(C)Oc3cc4c(cc32)OCO4)cc1OC (centres undefined) | > 84.1 | > 100 | 24.8 | > 80.3 | > 73.8 | > 100 | > 73.8 | > 100 | > 100 | > 100
8 | C=CC[C@]1(C2=NC(C)(C)CO2)c2ccccc2-c2ccccc2[C@H]1C(C)=O | 30 | 25.8 | 46.2 | 21.7 | 39.8 | 30.8 | 9.45 | 51 | 24.9 | 24
9 | O=C(C1OC1c1cccc([N+](=O)[O-])c1)C12CC3CC(CC(C3)C1)C2 (centres undefined) | 17.5 | 3.84 | 20 | 22.8 | 25.3 | 13.2 | 9.76 | 18.9 | 7.1 | 25.4
10 | COc1ccc2oc(C(=O)N3CC(CCl)c4ccc(N)cc43)cc2c1 (centres undefined) | > 26.7 | 32 | 3.23 | – | 18.7 | 8.5 | 0.0828 | > 41 | 0.277 | 6.57
11 | C[n+]1cn(-c2nc3ccccc3nc2[N-]S(=O)(=O)c2ccccc2)c2ccccc21 | > 100 | > 100 | > 100 | > 100 | > 100 | > 100 | 5.27 | > 100 | > 100 | > 100
12 | CC(=O)NC1(C)C(C)C2CC1C(C)C2(C)C (centres undefined) | > 100 | – | > 100 | > 100 | > 100 | > 100 | > 100 | > 100 | > 100 | > 100
13 | NCCNC(=O)CN(CC(=O)O)C1CCCCC1N(CC(=O)O)CC(=O)O (centres undefined) | > 100 | > 100 | 94.9 | > 100 | > 100 | > 100 | > 100 | > 100 | > 100 | > 100
14 | Cc1ccc(SCC(OCn2cnc3c(Cl)nc(N)nc32)[C@H](C)F)cc1 (some centres undefined) | > 100 | > 100 | > 100 | > 100 | > 100 | > 100 | 29.4 | > 100 | > 100 | > 100
15 | COc1cc(OC)c(C2(c3c(OC(C)C)c(=O)c3=O)SCCCS2)cc1OC | > 100 | > 100 | > 100 | > 100 | > 100 | > 100 | > 100 | > 100 | > 100 | > 100
16 | Cc1ccc(S(=O)(=O)NC(=O)NC(CCC(N)=O)C(=O)O)cc1 (centres undefined) | > 100 | > 100 | > 100 | > 100 | > 100 | > 100 | > 100 | > 100 | > 100 | > 100
17 | C#C[C@]1(O)CC[C@H]2[C@@H]3CCC4=C/C(=N/OC(=O)c5cccc6c(=O)c7ccccc7[nH]c56)CCC4[C@H]3CC[C@@]21CC (some centres undefined) | > 100 | > 56.6 | > 100 | > 100 | > 100 | > 100 | 56.1 | > 100 | > 39.6 | > 88.1
18 | O=C1NC(=Nc2ccccc2)C(=Nc2ccccc2)N1c1ccccc1 | 35.6 | 30.1 | 30.9 | – | 30 | 30.5 | 11.5 | 32.7 | 29 | 29.8
19 | C1=NCCOCCN=Cc2ccc(cc2)OCc2cccc(n2)COc2ccc1cc2 | > 100 | – | > 100 | > 100 | > 100 | > 100 | > 100 | > 100 | > 100 | > 100
20 | COC(=O)CNC(=O)CCC(C)[C@H]1CCC2C3C(C[C@H](OC(C)=O)[C@@]21C)[C@@]1(C)CCC2(C[C@H]1C[C@H]3OC(C)=O)OOC1(CCCCC1)OO2 (some centres undefined) | 3.48 | – | 5.3 | 8.28 | 2.72 | 3.17 | 3.14 | 6.62 | 3.48 | 20.1
